Entries after “also recorded” stand apart in the source; their conditions may differ. Oligonucleotides are written 5' to 3', each unit as a sugar letter and its base; * is a phosphorothioate linkage, no mark a phosphodiester; rarer units and linkages stand in square brackets, end groups in braces. Plain capitals give the bases only. e = 2'-O-(2-methoxyethyl) (MOE); [5mC] = 5-methylcytosine

Here are results for two compounds from patent publication US20230302036A1, “COMPOSITIONS FOR TREATMENT OF SPINAL MUSCULAR ATROPHY” (priority 2020, published 2023).

Data set [1] relates to SMA mice (Smn-/-; SMN2 2TG/0). Description: Kaplan-Meier survival of severe SMA mice. Particulars: s.c. ASO1 at P0 and P1 and/or one s.c. VPA 10 µg/g. The format is in vivo, mouse. How it is done: Kaplan-Meier survival plot (FIG. 4A) and growth curves (FIG. 4B) of SMA mice, following subcutaneous administration at P0 and P1 of 16.8 µg ASO1 (n=18) or saline (n=14), one subcutaneous dose before P3 of 10 µg per g of body weight VPA (n=12), or both treatments together (n=20). ASO1-treated Smn^+/- heterozygote littermates (n=15) served as controls. Scramble (Ctrl) (n=12, 40 trials), VPA (n=13, 50 trials), ASO1 (n=11, 50 trials), ASO1 + VPA (n=17, 68 trials), and untreated heterozygotes (n=12, 36 trials). Statistical significance was analyzed by two-way repeated measures ANOVA. P < 0.05 was considered statistically significant; data are represented as mean + SD. In the righting-reflex test, the time it took a mouse to right itself […] on a flat surface was measured. In the grip-strength test, the angle at which the pups fell from a tablet with a rough to which they held on by their forelimbs was measured.
FIGS. 7A-H show ASO1 and TSA combined treatment in mice. Kaplan-Meier survival plot (FIG. 7A) and growth curves (FIG. 7B) of SMA mice after subcutaneous administration at P0 and P1 of 16.8 µg ASO1 (n=20) or vehicle (n=12), one subcutaneous dose of 10 µg per g of body weight TSA (n=15) at P2, or both treatments together (n=24), are shown. ASO1-treated heterozygotes (n=18) served as controls. Statistical significance was analyzed by two-way repeated measures ANOVA. P < 0.05 was considered statistically significant; data are represented as mean + SD.
All mouse protocols were in accordance with Cold Spring Harbor Laboratory’s Institutional Animal Care and Use Committee guidelines. The mild Hung mouse model (Smn^-^/-; SMN2^2TG/2TG) was the strain FVB.Cg-Smn1^tm1Hung Tg(SMN2)2^Hung/J, purchased from Jackson Laboratory (stock no. 005058). The severe SMA model (Smn^-/-; SMN2^2TG/0) was generated as previously described (Hua et al., Nature 478, 123-126, 2011).
Oligonucleotide solutions in saline were injected subcutaneously into the upper back at P0 and P1 with a […] and 33-gauge custom removable needle (Hamilton) as described (Hua et al., Nature 478, 123-126, 2011). All drugs were injected subcutaneously before P3, contralateral to the oligonucleotide-injection site, with TSA (10 mg/kg) or VPA (10 mg/kg) or vehicle. Mouse tissues and organs, including liver, thigh muscles, kidney, and spinal cord, were snap-frozen in liquid N2 and stored at -70° C.
Introduction of a human SMN2 transgene in an Smn^-/- background rescues embryonic lethality, displaying a range of phenotypes, depending on the SMN2 copy number (Hsieh-Li et al., Nat. Genet. 24, 66-70, 2000; Monani et al., Hum Mol Genet. 12; 333-339, 2000). […]

The test system of data set [2] is endogenous SMN2 E7 alternative splicing. The data set can be described thus: SMN2 E7 alternative splicing by radioactive RT-PCR in HEK293T cells. The class given is cell-based, human. As to conditions: HEK293T. As for the experimental part: Alternative splicing was analyzed by radioactive RT-PCR followed by native polyacrylamide gel electrophoresis and autoradiography. Bars display means ± SD of percentage of the radioactivity in the FL band over the sum of radioactivity measurements in the FL and ΔE7 bands of at least three independent transfection experiments. A two-tailed Student’s t test was used to determine the significance between events. (FIG. 1A) HEK293T cells were co-transfected with the SMN2 minigene and expression vectors for WT^res and hC4 Pol II, followed by addition of α-amanitin. (FIG. 1B) Effect of camptothecin (CPT) on SMN2 E7 alternative splicing. HEK293T cells were incubated for at least 6 hours with 3 µM CPT. Combined effects on endogenous SMN2 E7 alternative splicing of transfection with 25 nM ASO1 and treatment with 3 µM TSA for 24 hr (FIG. 1C), 10 mM VPA for 24 hr (FIG. 1D), or 25 µM 5-AZA for 48 hr (FIG. 1E). Combined effects on HEK293T endogenous SMN2 E7 alternative splicing of transfection with 25 nM each of si-hnRNPA1 and si-hnRNPA2, and treatment with 3 µM TSA for 24 hr (FIG. 1F) or 10 mM VPA for 24 hr (FIG. 1G). […]
HEK293T, HeLa, and SMA type I homozygous and carrier fibroblasts 3813 and 3814 (Coriell Cell Repositories, Camden, New Jersey, United States) were grown in Dulbecco’s modified Eagle’s medium (DMEM) containing 4.5 g of glucose and 10% fetal bovine serum (Gibco) at 37° C. Cells were plated at a density of 2×10^5 cells per well in 12-well plates 24 hr before transfection. siRNA (25 nM), plasmid (500 ng), or ASO (25 nM) transfections were performed 24 hr after cells were plated, using 3 µl of Lipofectamine 2000 (Thermo Fisher Scientific) per well in 12-well plates. 24-48 h later, cells were treated with Trichostatin A (Sigma, T8552), Valproic Acid (Sigma, P4543), 5-Azacytidine (Sigma, A2385) or vehicle for the indicated time, and harvested for downstream procedures. […]

On to “ASO1: 5′-ATTCACTTTCATAATGCTGG-3′ 2′-O-methoxyethyl-modified oligonucleotide with phosphorothioate backbone and all 5-methyl cytosines; nusinersen variant with 2-nucleotide extension (antisense eA*eT*eT*e[5mC]*eA*e[5mC]*eT*eT*eT*e[5mC]*eA*eT*eA*eA*eT*eG*e[5mC]*eT*eG*eG)”, for which, in data set [1], the median survival is recorded as ~ 20 days, the “mice still alive at P50” value was found to be 15% and the “survival (in words)” value is “significantly extended”. In data set [2] (25 nM ASO, 3 µM TSA 24 hr, 25 µM 5-AZA 48 hr, 3 µM CPT), the “effect on SMN2 E7 inclusion, agent alone” value was “promoted inclusion”.
As to `CCCC(CCC)C(=O)O` [VPA, valproic acid], in data set [1], the “survival (in words)” value is reported as “died before P10; also recorded: lack of an effect per se”. In addition, the “effect of hnRNPA1/A2 depletion in promoting E7 inclusion upon HDAC inhibitor treatment” value in data set [2] (25 nM each si-hnRNPA1 and si-hnRNPA2, no ASO1, 3 µM TSA or 10 mM VPA 24 hr) was “stronger”.
